For 21 compounds, IC50 results are on record in patent US20230365584A1, “HETEROCYCLIC PERICONDENSED CDC7 KINASE INHIBITORS FOR THE TREATMENT OF CANCER” (SCHRÖDINGER, INC., priority 2020, published 2023).

A value given as a limit tells only on which side of the number the result lay.

Full length human CDC7 protein co-expressed with DBF4, sequence (O00311 whole entry): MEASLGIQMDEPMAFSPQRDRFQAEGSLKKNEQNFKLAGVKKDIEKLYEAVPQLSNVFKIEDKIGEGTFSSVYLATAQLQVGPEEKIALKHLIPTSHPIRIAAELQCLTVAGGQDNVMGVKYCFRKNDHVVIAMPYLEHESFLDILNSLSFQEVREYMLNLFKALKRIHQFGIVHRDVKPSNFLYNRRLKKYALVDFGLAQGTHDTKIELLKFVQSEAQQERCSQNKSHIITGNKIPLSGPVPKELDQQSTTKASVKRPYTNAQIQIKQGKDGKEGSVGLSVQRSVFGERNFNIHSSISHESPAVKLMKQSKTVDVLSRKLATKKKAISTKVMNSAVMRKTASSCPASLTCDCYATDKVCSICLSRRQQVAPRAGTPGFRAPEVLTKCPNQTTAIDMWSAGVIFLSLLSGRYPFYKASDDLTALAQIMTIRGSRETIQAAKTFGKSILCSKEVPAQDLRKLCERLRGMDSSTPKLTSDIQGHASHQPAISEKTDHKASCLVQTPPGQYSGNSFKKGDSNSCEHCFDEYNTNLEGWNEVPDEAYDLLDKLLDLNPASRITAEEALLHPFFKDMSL
Full length human CDC7 protein co-expressed with DBF4, sequence (Q9UBU7 whole entry partner): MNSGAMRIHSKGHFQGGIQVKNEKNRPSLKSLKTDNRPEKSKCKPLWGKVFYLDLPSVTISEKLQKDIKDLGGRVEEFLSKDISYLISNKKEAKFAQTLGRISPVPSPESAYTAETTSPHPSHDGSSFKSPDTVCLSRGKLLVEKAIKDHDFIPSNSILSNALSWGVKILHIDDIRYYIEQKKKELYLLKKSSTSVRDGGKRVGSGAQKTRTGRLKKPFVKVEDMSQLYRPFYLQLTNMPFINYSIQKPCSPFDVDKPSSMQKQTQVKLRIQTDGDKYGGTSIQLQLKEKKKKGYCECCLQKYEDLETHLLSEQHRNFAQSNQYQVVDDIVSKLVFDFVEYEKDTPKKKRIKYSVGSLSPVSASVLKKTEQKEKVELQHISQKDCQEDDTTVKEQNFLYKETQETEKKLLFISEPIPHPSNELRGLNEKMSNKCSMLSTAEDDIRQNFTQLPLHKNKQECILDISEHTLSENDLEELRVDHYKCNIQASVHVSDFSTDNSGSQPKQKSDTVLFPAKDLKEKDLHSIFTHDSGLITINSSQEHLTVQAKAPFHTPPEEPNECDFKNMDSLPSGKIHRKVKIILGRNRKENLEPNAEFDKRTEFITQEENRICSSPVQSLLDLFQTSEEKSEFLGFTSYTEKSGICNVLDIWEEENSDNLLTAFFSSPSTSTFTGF

The test addresses Full length human CDC7 protein co-expressed with DBF4 (Homo sapiens (Human), UniProt O00311). The experiment in a line: CDC7 kinase biochemical assay (ADP-Glo, PDKtide substrate). The note with it: 0.1 nM CDC7/DBF4, 1 uM ATP, 10 uM PDKtide, 4 h. Here is the method: CDC7 Kinase Biochemical Assay Protocol:
Full length human CDC7 protein co-expressed with DBF4 was purchased from SignalChem (China). CDC7 kinase activity was determined with PDKtide (SignalChem) as a substrate and by measuring ADP production using the ADP-Glo™ Kinase Assay kit (Promega) following the manufacturers instructions. The kinase reaction was performed using the following conditions: Buffer: 40 mM Tris pH 7.5, 20 mM MgCl2, 0.1 mg/ml BSA and 50 uM DTT. Final reaction mix contained 0.1 nM CDC7/DBF4, 1 uM ATP and 10 uM PDKtide. The kinase reaction time was 4 h. The ADP-Glo signal was measured using an EnVision plate reader (PerkinELmer).
Percent inhibition of CDC7 kinase activity was calculated based on the following formula:
[formula] • Ssample: the signal of compounds • SHigh Ctrl: the signal of high control (DMSO) • SLow Ctrl: the signal of low control (positive control CDC7 inhibitor)
Take `CC(c1[nH]c(=O)c2sc(-c3cn[nH]c3)c3c2c1CCCO3)n1nccn1` (racemic) [Example 48, 2-(1H-pyrazol-4-yl)-7-[1-(triazol-2-yl)ethyl]-12-oxa-3-thia-6-azatricyclo[6.4.1.0^4,13] trideca-1,4(13),7-trien-5-one]: the IC50 is under 1 nM.

For `C[C@@H](c1[nH]c(=O)c2sc(-c3cn[nH]c3)c3c2c1CCCO3)n1cc(C#N)cn1` (single isomer, unassigned) [Example 26], the IC50 is under 1 nM. In turn, `C[C@H](c1[nH]c(=O)c2sc(-c3cn[nH]c3)c3c2c1CCCO3)n1cc(C#N)cn1` (single isomer, unassigned) [Example 27] registered an IC50 of under 1 nM. The compound `C[C@H](O)c1[nH]c(=O)c2sc(-c3cn[nH]c3)c3c2c1CCCO3` (single isomer, unassigned) [Example 32] showed a 50% inhibitory concentration (IC50) of under 1 nM. Then `C[C@@H](O)c1[nH]c(=O)c2sc(-c3cn[nH]c3)c3c2c1CCCO3` (single isomer, unassigned) [Example 33], with under 1 nM; and `COC[C@H](c1[nH]c(=O)c2sc(-c3cn[nH]c3)c3c2c1CCCO3)n1cccn1` (single isomer, unassigned) [Example 35], with under 1 nM; and `COC[C@@H](c1[nH]c(=O)c2sc(-c3cn[nH]c3)c3c2c1CCCO3)n1cccn1` (single isomer, unassigned) [Example 36], with under 1 nM. On to `COC[C@H](c1[nH]c(=O)c2sc(-c3cn[nH]c3)c3c2c1CCCO3)N1CCC(F)(F)C1` (single isomer, unassigned) [Example 37], for which the half-maximal inhibitory concentration (IC50) lay within 1 to 10 nM. In turn, `COC[C@@H](c1[nH]c(=O)c2sc(-c3cn[nH]c3)c3c2c1CCCO3)N1CCC(F)(F)C1` (single isomer, unassigned) [Example 38] yielded an IC50 of 1 to 10 nM.

Compound `COC[C@@H](OC)c1[nH]c(=O)c2sc(-c3cn[nH]c3)c3c2c1CCCO3` (single isomer, unassigned) [Example 39] yielded an IC50 of under 1 nM. Then `COC[C@H](OC)c1[nH]c(=O)c2sc(-c3cn[nH]c3)c3c2c1CCCO3` (single isomer, unassigned) [Example 40], with under 1 nM; and `C[C@H](c1[nH]c(=O)c2sc(-c3cn[nH]c3)c3c2c1CCCO3)n1ccnn1` (single isomer, unassigned) [Example 49], with under 1 nM; and `C[C@@H](c1[nH]c(=O)c2sc(-c3cn[nH]c3)c3c2c1CCCO3)n1ccnn1` (single isomer, unassigned) [Example 50], with under 1 nM. `C[C@@](O)(c1[nH]c(=O)c2sc(-c3cn[nH]c3)c3c2c1CCCO3)C1CC1` (single isomer, unassigned) [Example 59] had an IC50 of under 1 nM.

As to `C[C@](O)(c1[nH]c(=O)c2sc(-c3cn[nH]c3)c3c2c1CCCO3)C1CC1` (single isomer, unassigned) [Example 60], the IC50 was under 1 nM.

On to `C[C@H]1Cc2c(C(C)(C)O)[nH]c(=O)c3sc(-c4cn[nH]c4)c(c23)O1` (single isomer, unassigned) [Example 61], for which the IC50 is under 1 nM.

`C[C@@H]1Cc2c(C(C)(C)O)[nH]c(=O)c3sc(-c4cn[nH]c4)c(c23)O1` (single isomer, unassigned) [Example 62] displayed an IC50 of under 1 nM. `C[C@H]1Cc2c(CN3CCC3)[nH]c(=O)c3sc(-c4cn[nH]c4)c(c23)O1` (single isomer, unassigned) [Example 63] showed an IC50 of under 1 nM.

`C[C@@H]1Cc2c(CN3CCC3)[nH]c(=O)c3sc(-c4cn[nH]c4)c(c23)O1` (single isomer, unassigned) [Example 64] yielded an IC50 of under 1 nM. Then `C[C@@H]1Cc2c(CN3CCC(F)(F)C3)[nH]c(=O)c3sc(-c4cn[nH]c4)c(c23)O1` (single isomer, unassigned) [Example 65], with under 1 nM; and `C[C@H]1Cc2c(CN3CCC(F)(F)C3)[nH]c(=O)c3sc(-c4cn[nH]c4)c(c23)O1` (single isomer, unassigned) [Example 66], with under 1 nM.
